# Test results as given in PubChem BioAssay AID857 (Vanderbilt High Throughput Screening Facility, 2007).
# The source made the active and inactive calls.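 The calls were made as follows: active = a full or partial dose-response curve in at least two of three replicate runs; inactive = the rest.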
# Biological target: D(1B) dopamine receptor (Homo sapiens) (UniProt P21918)
# Experiment: dopamine D5 receptor modulation at EC30 dopamine, dose response, selectivity assay for D1 allosteric modulator project, cell-based, HEK293, CRE-luciferase, luminescence (AID 857);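 also: HEK 293 cells expressing human D5 with a CRE-driven luciferase reporter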
# Sequence of D(1B) dopamine receptor (Homo sapiens) (P21918 whole entry, looked up): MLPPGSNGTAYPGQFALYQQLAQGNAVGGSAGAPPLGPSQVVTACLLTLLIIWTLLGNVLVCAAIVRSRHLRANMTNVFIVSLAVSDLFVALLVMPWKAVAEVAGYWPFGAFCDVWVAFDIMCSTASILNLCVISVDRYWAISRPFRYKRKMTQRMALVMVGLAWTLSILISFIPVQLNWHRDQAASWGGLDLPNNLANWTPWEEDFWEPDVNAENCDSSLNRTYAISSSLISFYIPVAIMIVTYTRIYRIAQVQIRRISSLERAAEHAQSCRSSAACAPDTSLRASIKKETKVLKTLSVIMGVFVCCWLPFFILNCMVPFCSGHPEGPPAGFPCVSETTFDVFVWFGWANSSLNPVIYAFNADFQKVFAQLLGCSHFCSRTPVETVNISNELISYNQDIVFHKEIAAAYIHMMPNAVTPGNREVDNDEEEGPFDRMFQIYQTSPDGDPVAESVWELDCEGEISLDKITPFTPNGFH
row,outcome,SMILES
1,inactive,O=S(=O)(c1cccs1)N1CCN(c2ccccn2)CC1
2,inactive,Cc1cc(C)n(CC(=O)n2c3c(c4ccccc42)CCCC3)n1
3,inactive,COc1ccc(N2C(=O)C3CCCN3C2c2ccccc2)cc1Cl (stereo unspecified)
4,inactive,C=CCn1c(SCC(=O)Nc2sc(C)c(C)c2C(=O)OCC)nnc1-c1sc(N)nc1C
5,inactive,CS(=O)(=O)c1sc2nc(-c3cccs3)cc(-c3ccccc3)c2c1N
6,inactive,CCOC(=O)C1CCCN(C(=O)c2cc(Cl)ccc2Cl)C1 (stereo unspecified)
7,inactive,Cc1[nH]nc2c1C(c1ccc(F)cc1)C1=C(CC(C)(C)CC1=O)N2 (stereo unspecified)
8,inactive,CC(=O)c1cc(C#N)c(SCc2ccncc2)nc1C
9,inactive,CCOc1ccccc1C1NC(=O)NC(C)=C1C(=O)OC1CCCCC1 (stereo unspecified)
10,inactive,COC(=O)/C(=C1/Oc2cc3c(cc2S1)OCO3)C(F)(F)F
11,inactive,CCOC(=O)C(O)(CCC(O)(C(=O)OCC)C(=O)OCC)C(=O)OCC
12,inactive,COc1cccc(-c2nn3c(-c4cc(C)[nH]n4)nnc3s2)c1
13,inactive,CCOC(=O)c1ccc(N2CN=C3SCC(=O)N3C2)cc1
14,inactive,COC(=O)c1ccc(COc2nc(C)cc(C)c2C#N)o1
15,inactive,CC(C)OC(=O)CSc1nnc(-c2cnccn2)n1-c1ccccc1
16,inactive,O=C(Nc1cc(Cl)ccc1N1CCOCC1)c1cnccn1

row,outcome,SMILES
1,inactive,CCC(=O)N1CCc2cc(S(=O)(=O)NCCC(=O)NC3CCCc4ccccc43)ccc21 (stereo unspecified)
2,inactive,CCn1ncc(C2=NOC(C(=O)NCc3ccccc3)C2)c1C (stereo unspecified)
3,inactive,CCOC(=O)CSc1nc2c(sc(=S)n2Cc2ccco2)c(=O)n1-c1ccccc1
4,inactive,CCc1nc(N)c(C#N)c(-c2ccncc2)c1C
5,inactive,CCN(CCCNC(=O)CN(C)S(=O)(=O)c1cccc2nsnc12)c1cccc(C)c1
6,inactive,Cc1noc(C)c1CSc1ncnc2ccccc12
7,inactive,CCOc1nc(NCCc2ccc(OC)c(OC)c2)nc(NC(C)(C)CO)n1
8,inactive,COc1ccc(-c2nnc(-c3ccc(Br)o3)o2)cc1OC
9,inactive,COc1cccc(NC2=NCC(=O)N2Cc2cccs2)c1
10,inactive,CCC(C)Sc1nc2c(c(=O)n1C)SC(C)C2 (stereo unspecified)
11,inactive,NC1=NC(c2cn(-c3ccccc3)nc2-c2cccs2)n2c(nc3ccccc32)N1 (stereo unspecified)
12,inactive,COc1ccc(S(=O)(=O)N2CCSC2c2ccc(OC)c(OC)c2)cc1 (stereo unspecified)
13,inactive,O=S(=O)(c1ccccc1)c1nc(-c2ccco2)oc1N1CCCCCC1
14,inactive,CCn1c(SCC(=O)Nc2ccccc2N2CCCCC2)nc2c1c(=O)n(C)c(=O)n2C
15,inactive,CCc1nnc(NC(=O)CSc2ncc(-c3ccccc3)n2CC)s1
